Experimental data published in ChEMBL document CHEMBL1201862, “PubChem BioAssay data set” (2004).
Each block holds one compound with its values, some of them ahead of it. Calls of active or inactive are those of the source.

Key:
[1] = molecular target: T1, Glycogen synthase kinase-3 beta (Homo sapiens, UniProt P49841); test: Inhibition of Human GSK-3 beta Activity Measured in Biochemical System Using Microfluidics - 2063-05_Inhibitor_Dose_DryPowder_Activity_Set2. [Related pubchem assays (depositor defined):AID2709]
T1 sequence (P49841 whole entry): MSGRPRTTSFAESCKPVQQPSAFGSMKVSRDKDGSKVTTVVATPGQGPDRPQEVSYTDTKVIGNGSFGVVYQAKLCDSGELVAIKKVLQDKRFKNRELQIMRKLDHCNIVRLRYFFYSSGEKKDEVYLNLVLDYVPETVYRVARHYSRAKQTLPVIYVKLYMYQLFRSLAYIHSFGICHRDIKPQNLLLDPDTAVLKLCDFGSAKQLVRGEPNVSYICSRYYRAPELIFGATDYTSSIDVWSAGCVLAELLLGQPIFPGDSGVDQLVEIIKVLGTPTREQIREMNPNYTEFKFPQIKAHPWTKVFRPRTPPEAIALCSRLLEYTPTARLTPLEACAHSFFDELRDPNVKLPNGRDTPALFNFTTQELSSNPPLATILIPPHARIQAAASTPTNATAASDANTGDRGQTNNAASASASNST

[2] = molecular target: T2, Ubiquitin-conjugating enzyme E2 N (Homo sapiens, UniProt P61088); type: functional;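 further: Dose-response confirmation in a TR-FRET assay detecting UBC13-driven polyubiquitin chain formation, inhibition measured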
T2 sequence (P61088 whole entry): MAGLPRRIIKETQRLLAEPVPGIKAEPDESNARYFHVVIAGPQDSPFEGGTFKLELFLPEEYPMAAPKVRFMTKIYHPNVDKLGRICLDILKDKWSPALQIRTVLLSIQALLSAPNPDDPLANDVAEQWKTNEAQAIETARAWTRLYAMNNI

[3] = molecular target: Cyclin-dependent kinase 5/CDK5 activator 1 (Homo sapiens, UniProt Q00535); test: CDK5-p25 kinase inhibitors, specificity check, dose response, selectivity assay for GSK-3 alpha inhibitor project, biochemical, microfluidic mobility shift, dry powder (AID 588430)
Sequence of Cyclin-dependent kinase 5/CDK5 activator 1 (Q00535 whole entry): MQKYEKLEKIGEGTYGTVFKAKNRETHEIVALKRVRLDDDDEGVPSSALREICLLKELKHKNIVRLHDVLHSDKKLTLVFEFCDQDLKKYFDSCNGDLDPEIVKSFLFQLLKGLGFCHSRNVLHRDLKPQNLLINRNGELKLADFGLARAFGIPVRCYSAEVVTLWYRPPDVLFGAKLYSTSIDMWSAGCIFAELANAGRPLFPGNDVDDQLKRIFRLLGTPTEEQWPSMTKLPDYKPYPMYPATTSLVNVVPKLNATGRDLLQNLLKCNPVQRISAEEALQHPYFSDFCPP
Sequence of Cyclin-dependent kinase 5/CDK5 activator 1 (Q15078 whole entry, further chain): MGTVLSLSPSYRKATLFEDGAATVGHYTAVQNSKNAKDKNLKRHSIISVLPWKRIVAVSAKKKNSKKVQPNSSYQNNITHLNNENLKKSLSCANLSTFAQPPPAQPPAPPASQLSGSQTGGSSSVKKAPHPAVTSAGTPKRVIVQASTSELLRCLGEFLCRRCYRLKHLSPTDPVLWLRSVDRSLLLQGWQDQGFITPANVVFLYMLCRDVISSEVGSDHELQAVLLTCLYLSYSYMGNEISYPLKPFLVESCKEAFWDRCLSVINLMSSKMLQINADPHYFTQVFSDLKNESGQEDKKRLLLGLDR

[4] = molecular target: Glycogen synthase kinase-3 alpha (Homo sapiens, UniProt P49840); test: Inhibition of Human GSK-3 alpha Activity Measured in Biochemical System Using Microfluidics - 2063-06_Inhibitor_Dose_DryPowder_Activity_Set2. [Related pubchem assays (depositor defined):AID2709]
Sequence of Glycogen synthase kinase-3 alpha (P49840 whole entry): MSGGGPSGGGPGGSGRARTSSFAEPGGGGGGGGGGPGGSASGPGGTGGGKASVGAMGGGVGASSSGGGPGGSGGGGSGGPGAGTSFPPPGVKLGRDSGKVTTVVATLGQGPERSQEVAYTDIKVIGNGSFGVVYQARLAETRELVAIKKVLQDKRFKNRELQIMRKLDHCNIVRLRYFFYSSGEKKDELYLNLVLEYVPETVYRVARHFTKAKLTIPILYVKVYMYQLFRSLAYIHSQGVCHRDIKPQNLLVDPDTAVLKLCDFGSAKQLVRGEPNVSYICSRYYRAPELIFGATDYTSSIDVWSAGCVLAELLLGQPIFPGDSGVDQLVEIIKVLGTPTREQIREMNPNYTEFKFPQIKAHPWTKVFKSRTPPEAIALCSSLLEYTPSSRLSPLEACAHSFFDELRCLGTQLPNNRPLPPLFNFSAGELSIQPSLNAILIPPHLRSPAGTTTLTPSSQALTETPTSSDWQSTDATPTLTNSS

[5] = molecular target: Interleukin-1 receptor-associated kinase 4 (Homo sapiens, UniProt Q9NWZ3); type: functional
Sequence of Interleukin-1 receptor-associated kinase 4 (Q9NWZ3 whole entry): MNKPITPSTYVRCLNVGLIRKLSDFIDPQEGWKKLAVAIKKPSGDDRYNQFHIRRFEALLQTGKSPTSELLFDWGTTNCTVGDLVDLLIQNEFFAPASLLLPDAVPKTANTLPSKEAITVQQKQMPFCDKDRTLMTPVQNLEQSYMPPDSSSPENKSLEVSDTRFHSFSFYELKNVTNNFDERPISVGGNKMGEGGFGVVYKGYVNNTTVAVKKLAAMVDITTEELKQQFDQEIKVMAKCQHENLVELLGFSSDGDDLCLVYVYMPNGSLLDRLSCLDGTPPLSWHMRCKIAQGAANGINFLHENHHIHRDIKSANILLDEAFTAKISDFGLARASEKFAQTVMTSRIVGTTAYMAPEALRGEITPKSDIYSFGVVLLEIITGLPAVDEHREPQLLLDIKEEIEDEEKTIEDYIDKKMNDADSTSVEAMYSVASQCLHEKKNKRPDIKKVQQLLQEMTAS

[6] = molecular target: Serine/threonine-protein kinase pim-1 (Homo sapiens, UniProt P11309); type: functional
Sequence of Serine/threonine-protein kinase pim-1 (P11309 whole entry): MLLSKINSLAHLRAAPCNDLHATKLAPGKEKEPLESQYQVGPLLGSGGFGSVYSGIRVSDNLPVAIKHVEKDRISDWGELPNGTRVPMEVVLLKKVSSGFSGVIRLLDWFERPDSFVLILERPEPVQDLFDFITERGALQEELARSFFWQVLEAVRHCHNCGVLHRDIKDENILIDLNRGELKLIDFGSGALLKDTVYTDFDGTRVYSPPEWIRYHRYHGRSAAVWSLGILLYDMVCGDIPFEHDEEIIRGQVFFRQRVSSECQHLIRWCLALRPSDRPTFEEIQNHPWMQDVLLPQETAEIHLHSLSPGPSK

[7] = molecular target: Cell division cycle 7-related protein kinase (Homo sapiens, UniProt O00311); type: functional;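 further: value obtained from a kinome-wide kinase panel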
Sequence of Cell division cycle 7-related protein kinase (O00311 whole entry): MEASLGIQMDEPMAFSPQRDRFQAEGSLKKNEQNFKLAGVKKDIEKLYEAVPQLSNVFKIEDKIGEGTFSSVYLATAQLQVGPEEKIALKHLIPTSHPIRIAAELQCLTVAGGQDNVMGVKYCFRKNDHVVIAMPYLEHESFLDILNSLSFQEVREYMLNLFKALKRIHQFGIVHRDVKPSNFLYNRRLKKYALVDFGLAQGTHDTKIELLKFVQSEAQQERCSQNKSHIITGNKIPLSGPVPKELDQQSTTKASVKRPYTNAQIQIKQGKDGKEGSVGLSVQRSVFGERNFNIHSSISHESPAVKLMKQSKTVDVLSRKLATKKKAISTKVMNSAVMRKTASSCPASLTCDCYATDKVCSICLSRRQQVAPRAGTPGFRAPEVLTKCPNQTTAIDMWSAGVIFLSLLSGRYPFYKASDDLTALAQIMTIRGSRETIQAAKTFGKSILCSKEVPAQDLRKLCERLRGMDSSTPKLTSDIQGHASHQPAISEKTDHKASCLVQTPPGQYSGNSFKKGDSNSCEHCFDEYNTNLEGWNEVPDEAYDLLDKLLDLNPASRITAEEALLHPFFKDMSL

[8] = molecular target: Homeodomain-interacting protein kinase 2 (Homo sapiens, UniProt Q9H2X6); type: functional;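 further: measured within a kinome-wide kinase profiling panel, HIPK2 being one panel member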
[9] = molecular target: T1, Glycogen synthase kinase-3 beta; type: functional
[10] = molecular target: ALK tyrosine kinase receptor (Homo sapiens, UniProt Q9UM73); type: functional;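 further: ALK tested as one member of a kinase panel screen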
Sequence of ALK tyrosine kinase receptor (Q9UM73 whole entry): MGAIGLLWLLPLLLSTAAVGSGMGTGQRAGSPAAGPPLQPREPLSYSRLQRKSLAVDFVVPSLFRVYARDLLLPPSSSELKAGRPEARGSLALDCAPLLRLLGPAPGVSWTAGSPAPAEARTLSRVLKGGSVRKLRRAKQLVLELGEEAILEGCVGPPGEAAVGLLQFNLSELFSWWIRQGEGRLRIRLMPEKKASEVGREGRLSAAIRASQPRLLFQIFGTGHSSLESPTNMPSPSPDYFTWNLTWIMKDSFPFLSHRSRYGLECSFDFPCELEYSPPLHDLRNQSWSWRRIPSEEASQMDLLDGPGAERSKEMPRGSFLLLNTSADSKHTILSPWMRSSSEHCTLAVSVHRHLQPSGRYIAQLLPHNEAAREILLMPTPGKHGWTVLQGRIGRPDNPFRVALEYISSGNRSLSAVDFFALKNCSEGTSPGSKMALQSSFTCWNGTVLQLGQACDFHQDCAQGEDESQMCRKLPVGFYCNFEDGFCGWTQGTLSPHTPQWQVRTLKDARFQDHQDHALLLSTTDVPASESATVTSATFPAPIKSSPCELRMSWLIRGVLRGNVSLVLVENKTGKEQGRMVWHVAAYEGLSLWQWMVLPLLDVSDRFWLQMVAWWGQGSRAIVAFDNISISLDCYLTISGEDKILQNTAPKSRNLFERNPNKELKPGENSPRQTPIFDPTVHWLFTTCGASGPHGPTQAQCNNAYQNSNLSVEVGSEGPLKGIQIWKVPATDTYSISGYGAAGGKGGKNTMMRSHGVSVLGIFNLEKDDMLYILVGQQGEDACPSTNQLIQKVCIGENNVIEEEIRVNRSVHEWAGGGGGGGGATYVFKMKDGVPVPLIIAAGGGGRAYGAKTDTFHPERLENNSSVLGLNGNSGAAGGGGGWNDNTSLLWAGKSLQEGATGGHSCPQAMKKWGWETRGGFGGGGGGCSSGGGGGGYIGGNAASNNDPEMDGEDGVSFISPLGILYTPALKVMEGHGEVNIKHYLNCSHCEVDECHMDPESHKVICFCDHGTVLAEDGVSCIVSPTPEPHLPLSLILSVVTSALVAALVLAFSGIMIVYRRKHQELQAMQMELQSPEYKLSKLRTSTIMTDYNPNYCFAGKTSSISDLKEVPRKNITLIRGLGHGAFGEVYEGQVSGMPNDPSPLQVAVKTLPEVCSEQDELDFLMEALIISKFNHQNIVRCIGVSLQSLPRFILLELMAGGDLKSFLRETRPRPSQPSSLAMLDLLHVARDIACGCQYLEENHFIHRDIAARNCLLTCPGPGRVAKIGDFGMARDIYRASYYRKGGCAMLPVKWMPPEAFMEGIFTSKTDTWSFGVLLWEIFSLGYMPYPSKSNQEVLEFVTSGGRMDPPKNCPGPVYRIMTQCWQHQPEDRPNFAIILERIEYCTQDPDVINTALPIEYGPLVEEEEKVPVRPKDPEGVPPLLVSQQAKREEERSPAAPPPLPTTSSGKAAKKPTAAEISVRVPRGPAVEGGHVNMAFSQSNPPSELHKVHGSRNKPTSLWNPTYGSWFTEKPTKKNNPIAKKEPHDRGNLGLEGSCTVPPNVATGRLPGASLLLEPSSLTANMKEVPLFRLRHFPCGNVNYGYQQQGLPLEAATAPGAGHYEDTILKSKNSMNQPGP

[11] = molecular target: cAMP-dependent protein kinase catalytic subunit alpha (Homo sapiens, UniProt P17612); type: functional
[12] = molecular target: T3, Apoptotic protease-activating factor 1 (Homo sapiens, UniProt O14727); test: SAR analysis of small molecule inhibitors of Apaf-1 in a Fluorescent assay.; type: functional; details: read-out: IC50_Mean
T3 sequence (O14727 whole entry): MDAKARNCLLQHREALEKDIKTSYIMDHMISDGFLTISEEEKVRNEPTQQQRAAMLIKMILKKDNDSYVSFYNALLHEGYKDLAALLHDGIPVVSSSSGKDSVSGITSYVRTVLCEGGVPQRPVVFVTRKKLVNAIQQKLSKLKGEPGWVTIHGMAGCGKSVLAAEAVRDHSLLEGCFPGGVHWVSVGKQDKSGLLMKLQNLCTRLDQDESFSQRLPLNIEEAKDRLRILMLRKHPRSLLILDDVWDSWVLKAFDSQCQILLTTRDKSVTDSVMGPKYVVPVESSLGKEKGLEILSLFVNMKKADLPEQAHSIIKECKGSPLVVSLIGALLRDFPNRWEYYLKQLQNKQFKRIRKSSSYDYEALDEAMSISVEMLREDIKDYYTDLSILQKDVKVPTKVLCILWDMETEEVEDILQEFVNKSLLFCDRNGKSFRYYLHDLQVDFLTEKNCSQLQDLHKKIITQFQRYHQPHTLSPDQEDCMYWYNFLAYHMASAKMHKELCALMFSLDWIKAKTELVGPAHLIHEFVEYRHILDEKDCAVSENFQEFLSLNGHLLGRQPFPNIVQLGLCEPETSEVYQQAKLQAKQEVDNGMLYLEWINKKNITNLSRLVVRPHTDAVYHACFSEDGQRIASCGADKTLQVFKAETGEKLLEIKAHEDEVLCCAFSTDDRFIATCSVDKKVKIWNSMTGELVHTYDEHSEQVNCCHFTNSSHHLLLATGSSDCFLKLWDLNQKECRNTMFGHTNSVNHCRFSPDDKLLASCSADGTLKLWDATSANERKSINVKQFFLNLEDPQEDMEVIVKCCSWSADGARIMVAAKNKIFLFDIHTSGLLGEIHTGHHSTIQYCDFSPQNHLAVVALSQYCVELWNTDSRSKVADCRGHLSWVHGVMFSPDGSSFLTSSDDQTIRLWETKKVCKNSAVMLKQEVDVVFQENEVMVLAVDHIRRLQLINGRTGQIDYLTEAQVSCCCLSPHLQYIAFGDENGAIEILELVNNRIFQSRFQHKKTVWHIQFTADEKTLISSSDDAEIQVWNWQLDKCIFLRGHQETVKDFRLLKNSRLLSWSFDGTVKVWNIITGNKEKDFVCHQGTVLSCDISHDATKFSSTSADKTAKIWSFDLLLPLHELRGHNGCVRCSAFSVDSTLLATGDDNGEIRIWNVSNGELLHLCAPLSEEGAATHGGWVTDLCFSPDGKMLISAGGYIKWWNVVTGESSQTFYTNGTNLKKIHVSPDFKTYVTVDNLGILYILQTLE

[13] = molecular target: Testis-specific serine/threonine-protein kinase 2 (Homo sapiens, UniProt Q96PF2); type: functional;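 further: part of the Navigating the Kinome panel, target entry STK22B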
Sequence of Testis-specific serine/threonine-protein kinase 2 (Q96PF2 whole entry): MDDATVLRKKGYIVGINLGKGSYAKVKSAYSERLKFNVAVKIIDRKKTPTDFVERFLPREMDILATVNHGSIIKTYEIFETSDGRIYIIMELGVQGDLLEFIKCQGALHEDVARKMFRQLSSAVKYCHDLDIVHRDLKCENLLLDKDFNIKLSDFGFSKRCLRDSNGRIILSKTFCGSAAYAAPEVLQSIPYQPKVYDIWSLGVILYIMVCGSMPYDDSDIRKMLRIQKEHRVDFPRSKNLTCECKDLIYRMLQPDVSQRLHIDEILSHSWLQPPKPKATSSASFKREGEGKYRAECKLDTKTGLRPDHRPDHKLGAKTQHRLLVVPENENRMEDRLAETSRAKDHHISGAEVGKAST

AC50 [1]: 351 nM (active)
IC50 [2]: > 20000 nM (inactive)
AC50 [3]: 28400 nM (active)
AC50 [4]: 984 nM (active)
Compound: O/N=C/c1cn(-c2ccccc2)nc1-c1ccc2c(c1)OCCO2

Ki [5]: 200 nM (active)
Ki [6]: 251 nM (active)
Ki [7]: 7.94 nM (active)
Ki [8]: 158 nM (active)
Ki [9]: 39.8 nM (active)
Ki [10]: > 5010 nM (inactive)
Ki [11]: 39.8 nM (active)
Compound: CN(Cc1ccccc1)c1cc(-c2c[nH]c3ncccc23)cc(Cl)n1

IC50 [12]: > 100000 nM (inactive)
Compound: CC(=O)c1ccc(C(=O)Nc2ccc3[nH]c(C)nc3c2)s1

Ki [13]: > 1580 nM (inactive)
Compound: CNC(=O)c1cc(Oc2ccc(NC(=O)Nc3ccc(Cl)c(C(F)(F)F)c3)cc2)ccn1 [SORAFENIB]
